Assay results taken from patent US8633186B2, “Modulation of chemosensory receptors and ligands associated therewith” (Senomyx Inc., priority 2007, dated 2014).
One block for each molecule: values may come before it.

How the values were obtained:
[1] = test system: human panelists (which sample is sweeter); experiment: Sweet flavor and sweet flavor enhancement, human panelists, paired comparison test; format: in vivo
Procedure: Test samples containing experimental compounds are presented in pairs to the panelist and they are asked to determine which of the sample is sweeter. A group of 10-16 or more panelists participated in each test. Subjects refrained from eating or drinking (except water) for at least 1 hour prior to the test. Subjects rinsed with water several times to clean the mouth.
All samples are prepared with ethanol to ensure dispersion of the compound in solution. This includes samples without compound; all solutions are balanced for 0.1% ethanol.
Samples are also prepared with low sodium buffer (pH 7.1) in place of water. Buffer contains 0.952 g of KCl, 5.444 g of Na2HPO4, and 0.952 g of KH2PO4 in 40 L of DIUF water. Sample volumes are usually 20 ml.
In one paired comparison test, the panelist is presented with two different samples and asked to identify the sample which is sweeter. The samples within a paired comparison test are presented in a randomized, counterbalanced order. Panelists have up to a 1 minute delay between taste tests to clear the mouth of any tastes.
Binomial probability tables are used to determine the probability of the correct number of responses occurring for each test at alpha=0.05.

[2] = test system: human panelists (perceived sweetness intensity); experiment: Sweet flavor and sweet flavor enhancement, human panelists, scaling test; format: in vivo; details: for Average sweetness score (line scale 0 to 15): Table 29; for Average Sweetness: Table 36, n = 13
Source text: Test samples containing experimental compounds were compared to a dose-response curve for perceived sweetness intensity of sweeteners (such as, for example, sucralose, sucrose, fructose and other sweeteners) concentrations to determine equivalent sweetness intensity.
A group of eight or more panelists tasted solutions including sweeteners at various concentrations, as well as the experimental compound both with and without added sweetener. Panelists then rated sweetness intensity of all samples on a structured horizontal line scale, anchored from 0 to 15, where 0 equals no sweetness and 15 equals equivalent sweetness to a 15% sucrose sample. Scores for sweetness intensity were averaged across panelists. Then using the average scores and/or equation of the line for the sweetener dose-response curve, equivalent sweetness concentrations were determined for the samples containing experimental compounds.
Subjects had been previously familiarized with the key attribute taste and were trained to use the 0 to 15 point line scale. Subjects refrained from eating or drinking (except water) for at least 1 hour prior to the test. Subjects ate a cracker and rinsed with water several times to clean the mouth.
Sweetener solutions are provided at a wide range of concentrations such as 100 ppm, 200 ppm, 300 ppm, 400 ppm, and 500 ppm for sucralose, or between 0% and 12% for sucrose or fructose, in order to create a dose-response curve. Samples containing experimental compound were prepared both alone and in a 100 ppm sucralose solution or a 6% sucrose or fructose solution. All samples were made up in low sodium buffer pH 7.1. In order to aid dispersion, solutions can be made up in 0.1% ethanol.
The solutions were dispensed in 20 ml volumes into 1 oz. sample cups and served to the subjects at room temperature. All samples were presented in randomized counterbalanced order to reduce response bias. Further, two sessions of testing may be used to check panel precision.
Subjects tasted each sample individually and rate sweetness intensity on the line scale prior to tasting the next sample. All samples were expectorated. Subjects may retaste the samples but can only use the volume of sample given. Subjects must rinse with water between samples. Eating an unsalted cracker between samples may be required depending on the samples tasted.
The scores for each sample were averaged across subjects and standard error was calculated. The dose-response curve was plotted graphically, and this may be used to ensure the panel is rating accurately; i.e., increasing the concentration of sucralose should correspond to increased average scores for sweetness. A 2-way ANOVA (factors being samples and panelists) and multiple comparison tests (such as Tukey's Honestly Significant Difference test) can be used to determine differences among samples and/or panelists. A 3-way ANOVA, with sessions as the third factor, can be used to determine if there is any difference in the ratings between sessions.

[3] = Table 35, 6% Fructose alone vs 6% Fructose + 100 μM C20, of n = 19

melting point: 246 to 247 °C
Compound: NC1=NS(=O)(=O)Nc2cccc(OCC3CC3)c21 [Example 186, (S)-4-Amino-5-(cyclopropylmethoxy)-1H-benzo[c][1,2,6]thiadiazine-2,2-dioxide]

melting point: 225 to 226 °C
Compound: CCCNC(=O)C(C)(C)COc1cccc2c1C(N)=NS(=O)(=O)N2 [Example 215, 3-(4-Amino-2,2-dioxide-1H-benzo[c][1,2,6]thiadiazin-5-yloxy)-2′,2′-dimethyl-N-propylpropanamide]

melting point: 235 to 236 °C
Compound: CC(C)(COc1cccc2c1C(N)=NS(=O)(=O)N2)NC(=O)c1ccccc1 [Example 216, N-(1-(4-amino-2,2-dioxide-1H-benzo[c][,6]thiadiazin-5-yloxy)-2′-methylpropan-2′-yl)benzamide]

Continued, molecule first:

Compound: Nc1nc(=O)[nH]c2sc3c(c12)CCOC3 [Compound 568]
Sample selected as more sweet by panelists, Total ([1]; Table 33, 6% Fructose + 100 μM compound vs 6% Fructose, of n = 26 (13 panelists × 2 reps)): 20

Compound: C/C=C/c1cccc2c1C(N)=NS(=O)(=O)N2 [Example 130, 4-Amino-5-((E)-prop-1-enyl)-1H-benzo[c][1,2,3]thiadiazine-2,2-dioxide]
melting point: > 260 °C

Compound: CC(C)=Cc1c(F)ccc2c1C(N)=NS(=O)(=O)N2 [Example 134, 4-Amino-6-fluoro-5-(2-methylprop-1-enyl)-1H-benzo[c][1,2,3]thiadiazine-2,2-dioxide]
melting point: > 250 °C

Compound: Nc1nc(=O)[nH]c2sc3c(c12)CCOC3 [Example 146, 4-Amino-5,6-(5′,7′-dihydro-4′H-[2′,3′-c]pyrano)thieno[2,3-d]-pyrimidine-2(1H)-one]
melting point: > 260 °C

Compound: NC1=NS(=O)(=O)Nc2cccc(OC3CCCCC3)c21 [Example 168, 4-Amino-5-(cyclohexyloxy)-1H-benzo[c][1,2,6]thiadiazine-2,2-dioxide]
melting point: 215 to 216 °C

Compound: NC1=NS(=O)(=O)Nc2cccc(OC3CCCC3)c21 [Example 169, 4-Amino-5-(cyclopentoxy)-1H-benzo[c][1,2,6]thiadiazine-2,2-dioxide]
melting point: > 260 °C

Compound: O=C(CO)[C@@H](O)[C@H](O)[C@H](O)CO [Fructose, fructose]
Average sweetness score (line scale 0 to 15) ([2]; 6% fructose alone): 6.9 | Average sweetness score (line scale 0 to 15) ([2]; 8% fructose alone): 8.6 | Average sweetness score (line scale 0 to 15) ([2]; 9% fructose alone): 9.3 | Average sweetness score (line scale 0 to 15) ([2]; 10% fructose alone): 9.5 | Average Sweetness ([2]; 2% Fructose alone): 2.3 | Average Sweetness ([2]; 4% Fructose alone): 4.2 | Average Sweetness ([2]; 6% Fructose alone): 5.9 | Sample selected as more sweet by panelists, Total ([1]; Table 33, 6% Fructose alone vs 6% Fructose + 100 μM compound, of n = 26): 6 | Sample selected as more sweet by panelists, Total ([1]; Table 34, 6% Fructose alone vs 6% Fructose + 100 μM C19, of n = 24): 6 | Sample selected as more sweet by panelists, Test 1 [1, 3]: 0 | Sample selected as more sweet by panelists, Total [1, 3]: 0 | Sample selected as more sweet by panelists, Test 1 ([1]; Table 37, 6% Fructose alone vs 6% fructose + 25 μM C21, of n = 25): 5 | Sample selected as more sweet by panelists, Test 1 ([1]; Table 38, 7% Fructose alone vs 6% fructose + 25 μM C21, of n = 25): 13
